Results as given in US20220145406A1, “BIOMARKERS, AND USES IN TREATMENT OF VIRAL INFECTIONS, INFLAMMATIONS, OR CANCER” (ABIVAX, priority 2018, published 2022).

System: CD4+ T cells
Experiment: RNAseq differential alternative splicing analysis (SUPPA) of cellular genes
Assay type: cell-based, human
Set-up: key to differential splicing Event type, gene ZNF177 / differential splicing Event type, gene FGF22 / differential splicing Event type, gene AL157955.2 / differential splicing Event type, gene TMEM147 / differential splicing Event type, gene ATIC / differential splicing Event type, gene CDRT15 / differential splicing Event type, gene WDR72 / differential splicing Event type, gene GNRHR2 / differential splicing Event type, gene ZNE584 / differential splicing Event type, gene LINC01869 / differential splicing Event type, gene LINC01119: Alternative 5′ splice site (A5); Alternative 3′ splice site (A3); Alt exons: Alternative first and last exons (Altexons); Retained intron (RI)
Procedure: Buffy coats from HIV-negative individuals were obtained from the local blood donation center in Centre de transfusion sanguine Montpellier. Human peripheral blood mononuclear cells (PBMCs) were isolated by Ficoll (Histopaque, Sigma) gradient centrifugation. CD4+ and CD8+ T cells were purified from PBMCs after Ficoll gradient centrifugation by Human CD4+ beads positive selection and CD8+ beads positive selection, respectively (Miltenyi). PBMCs, CD4+ and CD8+ T cells were grown at 37° C. and 5% CO2 to a density of 1.5×10^6 cells/ml in RPMI GlutaMAX medium (Life Technologies) supplemented with 10% fetal calf serum (FCS) (Thermo Fisher), 40 U/ml of IL2 (PeproTech) and 5 μg/mL of PHA (Roche) for 2 days. Three days later, cells were resuspended at 1.5×10^6 cells/ml in RPMI supplemented with 10% FCS and 40 U/ml IL2 and separated into two parts (infected and uninfected cells). Cells were infected with 80 ng of p24/106 cells of the YU-2 strain for 4 to 6 hours and then rinsed with PBS before medium renewal.
Both infected and uninfected cells were then centrifuged and resuspended to a density of 1.5×10^6 cells/ml in medium supplemented with diluted drug solubilized in DMSO (Sigma) to a final 0.05% DMSO concentration or antiretroviral compounds according to the manufacturer's instructions. Cells were treated for 6 days with a medium renewal at day 3. HIV p24 titration was performed by ELISA from cell culture supernatants with Innotest kit (Ingen) according to the manufacturer's instructions.
A full-detailed report describing the complete analysis was submitted to Gene Expression Omnibus (GEO, https://www.ncbi.nlm.nih.gov/geo/query/acc.cgi?acc=GSE116073). Total RNA extraction was performed according to the Qiagen miRNeasy □ kit. RNA concentrations were determined using Qubit[…] fluorometric quantification and purity by the RNA 6000 Bioanalyzer kit (Agilent). RNA-Seq libraries were constructed with the TruSeq stranded mRNA sample preparation (low-throughput protocol) kit from Illumina, according to the manufacturer's instructions. Aliquots of 1.2 μg of total RNA were used for the construction of the libraries. The final cDNA libraries were validated with a Fragment Analyzer (Advanced Analytical, Ankeny, Iowa) and quantified with a KAPA qPCR kit (Kapa Biosystems, Wilmington, Mass.). On the 8 sequencing lanes of a flow cell V4, the 32 libraries were pooled in equal proportions by sets of 4 libraries per lane, denatured with NaOH and diluted to […] before clustering. Cluster formation and primer hybridization and single-end read, 50-cycle sequencing were performed on the cBot and HiSeq 2500 (Illumina, San Diego, Calif.), respectively. Image analysis and base calling were performed using the HiSeq Control Software with the Real-Time Analysis component. Demultiplexing was performed using Illumina's sequencing analysis software. The quality of the data was assessed using FastQC from the Babraham Institute and the Illumina software SAV (Sequence Analysis Viewer). Potential contaminants were investigated with the FastQ Screen software from the Babraham Institute.
To investigate splicing activity we used SUPPA v2.0.0, a tool developed in Python 3.4 and especially designed for this approach. To study splicing across multiple conditions, we performed three modular operations that were run separately. The first step was to generate events from the annotation file commonly named the GTF file (general […]). The second step was to quantify event inclusion levels (PSIs) from our samples. Finally, differential splicing across multiple conditions was calculated for all replicates.
To generate the different alternative splicing events from an input annotation file (GTF format), the method reads transcript and gene information solely from the “exon” lines in the GTF. It then generates the events and outputs an ‘ioe’ file, which contains the relationship between each event and the transcripts that share this particular event. […]

[1] = ABX464_NI_VS_DMSO_NI, uninfected CD4 T cells

In the case of `FC(F)(F)Oc1ccc(Nc2ccc3cccc(Cl)c3n2)cc1` [ABX464, 8-chloro-N-(4-(trifluoromethoxy)phenyl)quinolin-2-amine], the “differential splicing Event type, gene AL157955.2” value [1] is reported as “A3”, the “differential splicing Event type, gene ATIC” value [1] is reported as “A5” and the “differential splicing Event type, gene CDRT15” value [1] is reported as “A5”. For the same molecule, the “differential splicing Event type, gene FGF22” value [1] was “A3”, the “differential splicing Event type, gene GNRHR2” value [1] was “RI” and the “differential splicing Event type, gene LINC01119” value [1] was “A3”. For the same molecule, the “differential splicing Event type, gene LINC01869” value [1] was “A3”, the “differential splicing Event type, gene TMEM147” value [1] was “RI” and the “differential splicing Event type, gene WDR72” value [1] was “A5”. For the same molecule, the “differential splicing Event type, gene ZNE584” value [1] was “A3”, the “differential splicing Event type, gene ZNF177” value [1] was “A3” and the “number of common and differential splicing events” value (infected and uninfected CD4+ T cells treated with ABX464, ΔPSI >0.4, p <0.05) was less than 10 events.
